Measured values reported in ChEMBL document CHEMBL4308875, “Synthesis, antituberculosis studies and biological evaluation of new quinoline derivatives carrying 1,2,4-oxadiazole moiety” (Bioorg Med Chem Lett, 2019).
≈ marks a conversion by molar mass, not a printed value.

What was measured:
Type in all cases: functional
Conditions in all cases: 168 h
[1] = tested on: Mycobacterium tuberculosis; experiment: Antitubercular activity against streptomycin-resistant Mycobacterium tuberculosis after 7 days by resazurin dye based colorimetric assay
[2] = tested on: Mycobacterium tuberculosis; experiment: Antitubercular activity against isoniazid-resistant Mycobacterium tuberculosis after 7 days by resazurin dye based colorimetric assay
[3] = tested on: Mycobacterium tuberculosis; experiment: Antitubercular activity against moxifloxacin-resistant Mycobacterium tuberculosis after 7 days by resazurin dye based colorimetric assay
[4] = tested on: Mycobacterium tuberculosis; experiment: Antitubercular activity against kanamycin-resistant Mycobacterium tuberculosis after 7 days by resazurin dye based colorimetric assay
[5] = tested on: Mycobacterium tuberculosis; experiment: Antitubercular activity against rifampicin-resistant Mycobacterium tuberculosis after 7 days by resazurin dye based colorimetric assay
[6] = tested on: Mycobacterium tuberculosis; experiment: Antitubercular activity against d-cycloserine-resistant Mycobacterium tuberculosis after 7 days by resazurin dye based colorimetric assay

SMILES	MIC [1] [µg/mL]	MIC [2] [µg/mL]	MIC [3] [µg/mL]	MIC [4] [µg/mL]	MIC [5] [µg/mL]	MIC [6] [µg/mL]
CC(C)c1ccc(-c2nc(CN3CCN(c4ccnc5cc(Cl)ccc45)CC3)no2)cc1	28.6 (≈ 63.8 µM)	4.17 (≈ 9.31 µM)	4.01 (≈ 8.95 µM)	3.24 (≈ 7.23 µM)	3.81 (≈ 8.51 µM)	3.68 (≈ 8.21 µM)
NNC(=O)c1ccncc1 [ISONIAZID]	1 (≈ 7.29 µM)	> 8	0.49 (≈ 3.57 µM)	0.49 (≈ 3.57 µM)	0.49 (≈ 3.57 µM)	3.78 (≈ 27.6 µM)
CC(=O)NC[C@H]1CN(c2ccc(N3CCOCC3)c(F)c2)C(=O)O1 [LINEZOLID]	14.1 (≈ 41.7 µM)	2.33 (≈ 6.91 µM)	3.65 (≈ 10.8 µM)	1.91 (≈ 5.66 µM)	1.68 (≈ 4.98 µM)	10.3 (≈ 30.7 µM)
COc1c(N2C[C@@H]3CCCN[C@@H]3C2)c(F)cc2c(=O)c(C(=O)O)cn(C3CC3)c12 [MOXIFLOXACIN]	0.94 (≈ 2.34 µM)	0.49 (≈ 1.22 µM)	> 16	0.21 (≈ 0.523 µM)	0.42 (≈ 1.05 µM)	0.46 (≈ 1.15 µM)
CO[C@H]1/C=C/O[C@@]2(C)Oc3c(C)c(O)c4c(O)c(c(/C=N/N5CCN(C)CC5)c(O)c4c3C2=O)NC(=O)/C(C)=C\C=C\[C@H](C)[C@H](O)[C@@H](C)[C@@H](O)[C@@H](C)[C@H](OC(C)=O)[C@@H]1C [RIFAMPIN]	0.05 (≈ 0.0608 µM)	< 0.02	0.23 (≈ 0.279 µM)	< 0.02	> 4	< 0.02
